In one test the test system is Ras protein. The test can be described thus: Gel Shift Assay against ras protein. The format is cell-based. The settings on record: ras-transformed cells, 18-hour incubation; read-out: Gel Shift Minimum Effective Dose. The method, then: Twenty-four hours after planting 2×10^6 ras-transformed cells per treatment condition, the farnesylation inhibitor is added at varying concentrations. Following an 18-hour incubation period, cells are lysed in phosphate-buffered saline containing 1% Triton X-100, 0.5% sodium deoxycholate, and 0.1% SDS, pH 7.4 in the presence of several protease inhibitors (PMSF, antipain, leupeptin, pepstatin A, and aprotinin all at 1 μg/mL). Ras protein is immunoprecipitated from the supernatants by the addition of 3 μg v-H-ras Ab-2 (Y13-259 antibody from oncogene Science). After overnight immunoprecipitation, 30 μL of a 50% protein G-Sepharose slurry (Pharmacia) is added followed by 45-minute incubation. Pellets are resuspended in 2× tris-glycine loading buffer (Novex) containing 5% B-mercaptoethanol and then denatured by 5 minutes boiling prior to electrophoresis on 14% Tris-glycine SDS gels. Using Western transfer techniques, proteins are transferred to nitrocellulose membranes followed by blocking in blocking buffer. Upon overnight incubation with primary antibody (pan-ras Ab-2 from Oncogene Science), an antimouse HRP conjugate secondary antibody (Amersham) is employed for detection of the ras protein. Blots are developed using ECL techniques (Amersham).
On the technique in general: Mobility shift assays separate free from complexed probe on a gel.

Test [1] addresses T1, rat brain farnesyl protein transferase (Rattus norvegicus, UniProt Q02293+Q04631).
T1 construct: 40-fold purified rat brain farnesyl protein transferase; from tissue; host or cells: rat brain
The test can be described thus: Farnesyl Protein Transferase Inhibition (PFT/FPT inhibitory activity). The format is biochemical. The method, then:
The protein:farnesyltransferase (PFT) or farnesyl protein transferase (FPT) inhibitory activity of compounds of Formula I was assayed in HEPES buffer (pH 7.4) containing 5 mM potassium phosphate and 20 μM ZnCl2. The solution also contained 7 mM DTT, 1.2 mM MgCl2, 0.1 mM leupeptin, 0.1 mM pepstatin, and 0.2 mM phenylmethylsulfonyl fluoride. Assays were performed in 96 well plates (Wallec) and employed solutions composed of varying concentrations of a compound of Formula I in 100% DMSO. Upon addition of both substrates, radiolabeled farnesyl pyrophosphate ([1-^3 H], specific activity 15-30 Ci/mmol, final concentration 0.12 μM) and (biotinyl)-Ahe-Tyr-Lys-Cys-Val-Ile-Met peptide (final concentration 0.2 μM), the enzyme reaction was started by addition of 40-fold purified rat brain farnesyl protein transferase. After incubation at 37° for 30 minutes, the reaction was terminated by diluting the reaction 2.5-fold with a stop buffer containing 1.5M magnesium acetate, 0.2M H3 PO4, 0.5% BSA, and strepavidin beads (Amersham) at a concentration of 1.3 mg/mL. After allowing the plate to settle for 30 minutes at room temperature, radioactivity was quantitated on a microBeta counter (Model 1450, Wallec). Compounds of Formula I show IC50 values of 0.8 to 60 μM in this assay and are thus valuable inhibitors of protein:farnesyltransferase enzyme which may be used in the medical treatment of tissue proliferative diseases, including cancer and restenosis. The assay was also carried out without 5 mM potassium phosphate.

The mark [2] stands for this setting: Hepes with 5 mM PO4^-3, read-out: Farnesyl Protein Transferase Inhibition Hepes/5 mM PO4^-3 IC50.
Setting [3] is: Hepes, without 5 mM phosphate, read-out: Farnesyl Protein Transferase Inhibition Hepes IC50.

Minimal effective concentration and IC50 data for 18 molecules are collected here from patent US5919780A, “Tricyclic inhibitors of protein farnesyltransferase” (Warner Lambert Company, priority 1997, dated 1999).

pIC50: −log10 of the molar value. Where two headings read alike, the source gives them in different places.

On to `c1ccc(COc2ccc3c(c2)N=C(NCc2cccnc2)c2ccccc2N3)cc1` [Example 12, (8-Benzyloxy-5H-dibenzo[b,e][1,4]diazepin-11-yl)-pyridin-3-ylmethyl-amine], for which the minimal effective concentration in the test with Ras protein is > 50 µM. Moreover, the values for the pIC50 in test [1] (setting [2]) and in test [1] (setting [3]) were 4.43 and < 4.30, respectively.

For the molecule `Cc1ccc2c(c1)N=C(NCc1cccnc1)c1ccccc1N2` [Example 8, (8-Methyl-5H-dibenzo[b,e][1,4]diazepin-11-yl)-pyridin-3-ylmethyl-amine], the figures for the pIC50 in test [1] (setting [2]) and in test [1] (setting [3]) were 4.51 and 4.62, respectively.

`Clc1ccc2c(c1)N=C(NCCn1ccnc1)c1ccccc1N2` [Example 4, (8-Chloro-5H-dibenzo[b,e][1,4]diazepin-11-yl)-(2-imidazol-1-yl-ethyl)-amine]: the minimal effective concentration in the test with Ras protein amounted to 5 µM. Moreover, the pIC50 in test [1] (setting [2]) is 5.60; in test [1] (setting [3]), 5.52.

For `CN1c2ccc(Cl)cc2N=C(NCc2cccnc2)c2ccccc21` [Example 15, (8-Chloro-5-methyl-5H-dibenzo[b,e][1,4]diazepin-11-yl)-pyridin-3-ylmethyl-amine], the minimal effective concentration with Ras protein is > 25 µM. Besides, the pIC50 in test [1] (setting [2]) is 4.77; in test [1] (setting [3]) it was 4.91.

Take `c1cncc(CNC2=Nc3ccccc3Nc3ccccc32)c1` [Example 7, (5H-Dibenzo[b,e][1,4]diazepin-11-yl)-pyridin-3-ylmethyl-amine]: the minimal effective concentration in the test with Ras protein is 50 µM. Moreover, the values for the pIC50 in test [1] (setting [2]) and in test [1] (setting [3]) were 4.92 and 4.64, respectively.

On to `COc1cc2c(cc1OC)C(NCc1cccnc1)=Nc1cc(Cl)c(Cl)cc1N2` [Example 13, (7,8-Dichloro-2,3-dimethoxy-5H-dibenzo[b,e][1,4]diazepin-11-yl)-pyridin-3-ylmethyl-amine], for which the results for the pIC50 in test [1] (setting [2]) and in test [1] (setting [3]) were 4.30 and 4.52, respectively.

As to `Clc1ccc2c(c1)N=C(NCc1cccnc1)c1ccccc1O2` [Example 18, (8-Chloro-dibenzo[b,f][1,4]oxazepin-11-yl)-pyridin-3-ylmethyl-amine], the pIC50 in test [1] (setting [2]) is 4.78; in test [1] (setting [3]) it was 5.06.

As to `Clc1ccc2c(c1)Nc1ccccc1C(NCc1cccnc1)=N2` [Example 6, (7-Chloro-5H-dibenzo[b,e][1,4]diazepin-11-yl)pyridin-3-ylmethyl-amine], the minimal effective concentration with Ras protein was determined as 50 µM. Further, the results for the pIC50 in test [1] (setting [2]) and in test [1] (setting [3]) were 5.25 and 5.26, respectively.

For the molecule `O=S1(=O)c2ccc(Cl)cc2N=C(NCc2cccnc2)c2ccccc21` [Example 17, (8-Chloro-5,5-dioxo-5H-5λ^6-dibenzo[b,f][1,4]thiazepin-11-yl)-pyridin-3-ylmethyl-amine], the pIC50 in test [1] (setting [2]) is 5.21; in test [1] (setting [3]), 5.30.

Take `Clc1ccc2c(c1)N=C(NCc1cccnc1)c1ccccc1S2` [Example 16, (8-Chloro-dibenzo[b,f][1,4]thiazepin-11-yl)pyridin-3-ylmethyl-amine]: the pIC50 in test [1] (setting [2]) is 4.66; in test [1] (setting [3]), 5.01.

For `Clc1ccc2c(c1)N=C(NCc1cccnc1)c1ccccc1N2` [Example 1, (8-Chloro-5H-dibenzo[b,e][1,4]diazepin-11-yl)pyridin-3-ylmethyl-amine], the minimal effective concentration in the test on Ras protein came to 50 µM. Further, the pIC50 in test [1] (setting [2]) was 5.30; in test [1] (setting [3]), 5.43.

Regarding `COc1ccc2c(c1)N=C(NCc1cccnc1)c1ccccc1N2` [Example 9, (8-Methoxy-5H-dibenzo[b,e][1,4]diazepin-11-yl)-pyridin-3-ylmethyl-amine], in the test with Ras protein, the minimal effective concentration worked out at 50 µM. In addition, the pIC50 was 4.80 in test [1] (setting [2]) and 4.57 in test [1] (setting [3]).

Take `Brc1ccc2c(c1)N=C(NCc1cccnc1)c1ccccc1N2` [Example 10, (8-Bromo-5H-dibenzo[b,e][1,4]diazepin-11-yl)-pyridin-3-ylmethyl-amine]: the results for the pIC50 in test [1] (setting [2]) and in test [1] (setting [3]) were 4.44 and 5.22, respectively.

For `Clc1ccc2c(c1)N=C(NCCCn1ccnc1)c1ccccc1N2` [Example 5, (8-Chloro-5H-dibenzo[b,e][1,4]diazepin-11-yl)-(3-imidazol-1-yl-propyl)-amine], the minimal effective concentration in the test with Ras protein came out at 2.5 µM. In addition, the figures for the pIC50 in test [1] (setting [2]) and in test [1] (setting [3]) were 5.35 and 5.17, respectively.

In the case of `Clc1cc2c(cc1Cl)Nc1ccccc1C(NCc1cccnc1)=N2` [Example 11, (7,8-Dichloro-5H-dibenzo[b,e][1,4]diazepin-11-yl)-pyridin-3-ylmethyl-amine], in the test on Ras protein, the minimal effective concentration is 50 µM. The pIC50 in test [1] (setting [2]) is 5.80; in test [1] (setting [3]) it was 6.10.

Regarding `Clc1ccc2c(c1)N=C(NCCc1cnc[nH]1)c1ccccc1N2` [Example 2, (8-Chloro-5H-dibenzo[b,e][1,4]diazepin-11-yl)-[2-(3H-imidazol-4-yl)-ethyl]-amine], in the test with Ras protein, the minimal effective concentration amounted to 25 µM. Besides, the pIC50 in test [1] (setting [2]) was 5.52; in test [1] (setting [3]) it was 5.62.

For `c1cncc(CNC2=Nc3ccccc3Nc3ncccc32)c1` [Example 14, (11H-Benzo[b]pyrido[2,3-e][1,4]diazepin-5-yl)-pyridin-3-ylmethyl-amine], the minimal effective concentration in the test on Ras protein was 50 µM. In addition, the pIC50 in test [1] (setting [2]) was 4.77; in test [1] (setting [3]), 4.85.

For the molecule `Clc1ccc2c(c1)N=C(NCCc1cccnc1)c1ccccc1N2` [Example 3, (8-Chloro-5H-dibenzo[b,e][1,4]diazepin-11-yl)-(2-pyridin-3-yl-ethyl)-amine], the minimal effective concentration in the test with Ras protein was > 50 µM. In addition, the pIC50 in test [1] (setting [2]) was 4.24; in test [1] (setting [3]), 4.44.
